Data from PMC8034821 (The Journal of Venomous Animals and Toxins Including …, 2021).

Test system: krait (Bungarus sindanus) venom acetylcholinesterase (AChE)
Test: Ellman (DTNB) assay, Lineweaver-Burk plot
Type: biochemical
Conditions: no inhibitor; 50 mM phosphate pH 7.4; 25 or 37 °C (both printed); crude venom

`CC(=O)SCC[N+](C)(C)C` [AcSCh] was tested. Which Km did it give?
The Km was 74.1 µM.
